This note sets out measurements from ChEMBL document CHEMBL4616659, “Talarolactone A, an Isocoumarin Derivative Fused with Dihydrothiophene with Selective Antimigratory Activity from the Endolichenic Fungus Talaromyces sp” (J Nat Prod, 2020).

Data set [1] is described as follows: Cytotoxicity against human THLE cells at 6.25 to 50 ug/ml incubated for 24 hrs by MTT assay. In kind it is cell-based. (In general: Tetrazolium assays rely on reduction of a dye to a coloured formazan, in cell work by metabolically active cells.)
Data set [2] concerns Staphylococcus aureus. The data set can be described thus: Antibacterial activity against Methicillin-resistant Staphylococcus aureus up to 100 ug/ml incubated for 20 hrs by microbroth dilution method. It is filed as functional, organism-based. In general terms: In broth dilution the organism is exposed to a series of concentrations in liquid medium.
A short description of data set [3]: Cytotoxicity against human HBE cells at 6.25 to 50 ug/ml incubated for 24 hrs by MTT assay. It is filed as cell-based.
In another data set the test system is MCF7. In words: Cytotoxicity against human MCF7 cells at 6.25 to 50 ug/ml incubated for 24 hrs by MTT assay. In kind it is functional, cell-based.
In data set [4] the test system is Klebsiella pneumoniae. The data set can be described thus: Antibacterial activity against Klebsiella pneumoniae harboring NDM1 mutant up to 100 ug/ml incubated for 20 hrs by microbroth dilution method. In kind it is functional, organism-based.
The subject of another data set is Enterobacter cloacae. In words: Antibacterial activity against Enterobacter cloacae ATCC 13047 up to 100 ug/ml incubated for 20 hrs by microbroth dilution method. It is filed as functional, organism-based.
Data set [5] has as its system HepG2. In words: Cytotoxicity against human HepG2 cells at 6.25 to 50 ug/ml incubated for 24 hrs by MTT assay. It is filed as functional, cell-based.
Another data set relates to Escherichia coli. The data set can be described thus: Antibacterial activity against Escherichia coli ATCC 25922 up to 100 ug/ml incubated for 20 hrs by microbroth dilution method. It is filed as functional, organism-based.
The subject of another data set is Acinetobacter baumannii. The data set can be described thus: Antibacterial activity against Acinetobacter baumannii ATCC 19004 up to 100 ug/ml incubated for 20 hrs by microbroth dilution method. In kind it is functional, organism-based.
Data set [6] concerns Klebsiella pneumoniae. The data set can be described thus: Antibacterial activity against Klebsiella pneumoniae ATCC 43816 up to 100 ug/ml incubated for 20 hrs by microbroth dilution method. It is filed as functional, organism-based.
The next data set relates to MDA-MB-231. The data set can be described thus: Cytotoxicity against human MDA-MB-231 cells at 6.25 to 50 ug/ml incubated for 24 hrs by MTT assay. In kind it is functional, cell-based.
In data set [7] the test system is Staphylococcus aureus. In words: Antibacterial activity against Staphylococcus aureus ATCC 29213 up to 100 ug/ml incubated for 20 hrs by microbroth dilution method. In kind it is functional, organism-based.
A short description of data set [8]: Toxicity in zebrafish AB embryo up to 100 ug/ml after 24 to 88 hrs by inverted microscope. Set-up: species or system Danio rerio. Particulars: in vivo.
The next data set has as its system A549. The data set can be described thus: Cytotoxicity against human A549 cells at 6.25 to 50 ug/ml incubated for 24 hrs by MTT assay. It is filed as functional, cell-based.
In data set [9] the test system is HepG2. The data set can be described thus: Antimigratory activity against human HepG2 cells at 25 ug/ml measured up to 60 hrs by microscopic based wound healing assay. In kind it is functional, cell-based.
The next data set has as its system Salmonella typhimurium. In words: Antibacterial activity against Salmonella typhimurium ATCC 14028 up to 100 ug/ml incubated for 20 hrs by microbroth dilution method. It is filed as functional, organism-based. Particulars: Salmonella enterica subsp. enterica serovar Typhimurium.

Active and inactive are the calls of the source. No cut-off for these calls is given here.

Turning to `COc1cc(C(=O)O)c2c3c1C(=O)O[C@@H](C)[C@@H]3CS2`, the Activity entry in [1], in [3] and in data set [8] was “Non-Toxic” in each case. Also, the result in the data set on Staphylococcus aureus [2], with MCF7, with Klebsiella pneumoniae [4], with Enterobacter cloacae, in the data set with HepG2 [5] and with Escherichia coli was inactive. Moreover, the result with Acinetobacter baumannii, with Klebsiella pneumoniae [6], in the data set with MDA-MB-231, with Staphylococcus aureus [7], in the data set with A549 and with Salmonella typhimurium was inactive. Also, the result in the data set with HepG2 [9] was Active.
